Results reported in ChEMBL document CHEMBL6127119 (J Med Chem, 2024).
Values after ≈ are worked out from the molar mass of the structure shown.

Columns and labels:
Assay type in all cases: functional
Conditions in all cases: time 16-24 hrs
Staphylococcus aureus [1] = experiment: Antibacterial activity against methicillin-susceptible Staphylococcus aureus incubated for 16 to 24 hrs by CLSI based broth microdilution method
Staphylococcus aureus [2] = experiment: Antibacterial activity against vancomycin-intermediate Staphylococcus aureus incubated for 16 to 24 hrs by CLSI based broth microdilution method
Enterococcus faecium [3] = experiment: Antibacterial activity against vancomycin-resistant Enterococcus faecium harboring VanA phenotype incubated for 16 to 24 hrs by CLSI based broth microdilution method
Enterococcus faecium [4] = experiment: Antibacterial activity against vancomycin-resistant Enterococcus faecium harboring VanM phenotype incubated for 16 to 24 hrs by CLSI based broth microdilution method
Enterococcus faecium [5] = experiment: Antibacterial activity against vancomycin-resistant Enterococcus faecium harboring VanB phenotype incubated for 16 to 24 hrs by CLSI based broth microdilution method
Escherichia coli = experiment: Antibacterial activity against Escherichia coli AB1157 incubated for 16 to 24 hrs by CLSI based broth microdilution method
Acinetobacter baumannii = experiment: Antibacterial activity against Carbapenem-resistant Acinetobacter baumannii clinical isolate incubated for 16 to 24 hrs by CLSI based broth microdilution method
Klebsiella pneumoniae = experiment: Antibacterial activity against Klebsiella pneumoniae clinical isolate incubated for 16 to 24 hrs by CLSI based broth microdilution method
Pseudomonas aeruginosa = experiment: Antibacterial activity against Pseudomonas aeruginosa PAO1 incubated for 16 to 24 hrs by CLSI based broth microdilution method

| SMILES | MIC (Staphylococcus aureus [1]) [µg/mL] | MIC (Staphylococcus aureus [2]) [µg/mL] | MIC (Enterococcus faecium [3]) [µg/mL] | MIC (Enterococcus faecium [4]) [µg/mL] | MIC (Enterococcus faecium [5]) [µg/mL] | MIC (Escherichia coli) [µg/mL] | MIC (Acinetobacter baumannii) [µg/mL] | MIC (Klebsiella pneumoniae) [µg/mL] | MIC (Pseudomonas aeruginosa) [µg/mL] |
| --- | --- | --- | --- | --- | --- | --- | --- | --- | --- |
| CC(C)C[C@H](C(=O)N[C@H]1C(=O)N[C@@H](CC(N)=O)C(=O)N[C@H]2C(=O)N[C@H]3C(=O)N[C@H](C(=O)N[C@H](C(=O)O)c4cc(O)cc(O)c4-c4cc3ccc4O)[C@H](O)c3ccc(c(Cl)c3)Oc3cc2cc(c3O[C@@H]2O[C@H](CO)[C@@H](O)[C@H](O)[C@H]2O[C@H]2C[C@](C)(N)[C@H](O)[C@H](C)O2)Oc2ccc(cc2Cl)[C@H]1O)N(C)Cc1ccc(-c2ccc(CN)cc2)cc1 | 1 (≈ 0.608 µM) | 8 (≈ 4.86 µM) | 64 (≈ 38.9 µM) | 64 (≈ 38.9 µM) | 64 (≈ 38.9 µM) | > 128 | > 128 | > 128 | – |
| CN[C@H](CC(C)C)C(=O)N[C@H]1C(=O)N[C@@H](CC(N)=O)C(=O)N[C@H]2C(=O)N[C@H]3C(=O)N[C@H](C(=O)N[C@H](C(=O)O)c4cc(O)cc(O)c4-c4cc3ccc4O)[C@H](O)c3ccc(c(Cl)c3)Oc3cc2cc(c3O[C@@H]2O[C@H](CO)[C@@H](O)[C@H](O)[C@H]2O[C@H]2C[C@](C)(NCc3ccc(-c4ccc(CCNC(=N)N)cc4)cc3)[C@H](O)[C@H](C)O2)Oc2ccc(cc2Cl)[C@H]1O | 0.125 (≈ 0.0735 µM) | 2 (≈ 1.18 µM) | 8 (≈ 4.7 µM) | – | 4 (≈ 2.35 µM) | 64 (≈ 37.6 µM) | 64 (≈ 37.6 µM) | > 128 | – |
| Cc1ccc(-c2ccc(CNC(=O)[C@H]3NC(=O)[C@H]4NC(=O)[C@H](NC(=O)[C@@H]5NC(=O)[C@H](CC(N)=O)NC(=O)[C@H](NC(=O)[C@H](N)CC(C)C)[C@H](O)c6ccc(c(Cl)c6)Oc6cc5cc(c6O[C@@H]5O[C@H](CO)[C@@H](O)[C@H](O)[C@H]5O[C@H]5C[C@](C)(N)[C@H](O)[C@H](C)O5)Oc5ccc(cc5Cl)[C@H]4O)c4ccc(O)c(c4)-c4c(O)cc(O)cc43)cc2)cc1 | 0.125 (≈ 0.0774 µM) | 0.5 (≈ 0.31 µM) | 8 (≈ 4.96 µM) | 8 (≈ 4.96 µM) | 2 (≈ 1.24 µM) | 128 (≈ 79.3 µM) | > 128 | > 128 | > 128 |
| CN[C@H](CC(C)C)C(=O)N[C@H]1C(=O)N[C@@H](CC(N)=O)C(=O)N[C@H]2C(=O)N[C@H]3C(=O)N[C@H](C(=O)N[C@H](C(=O)O)c4cc(O)cc(O)c4-c4cc3ccc4O)[C@H](O)c3ccc(c(Cl)c3)Oc3cc2cc(c3O[C@@H]2O[C@H](CO)[C@@H](O)[C@H](O)[C@H]2O[C@H]2C[C@](C)(NCc3ccc(-c4ccc(CN)cc4)cc3)[C@H](O)[C@H](C)O2)Oc2ccc(cc2Cl)[C@H]1O | 0.25 (≈ 0.152 µM) | 2 (≈ 1.22 µM) | 16 (≈ 9.73 µM) | – | 16 (≈ 9.73 µM) | 64 (≈ 38.9 µM) | 128 (≈ 77.8 µM) | > 128 | – |
| CC(C)C[C@H](C(=O)N[C@H]1C(=O)N[C@@H](CC(N)=O)C(=O)N[C@H]2C(=O)N[C@H]3C(=O)N[C@H](C(=O)N[C@H](C(=O)O)c4cc(O)cc(O)c4-c4cc3ccc4O)[C@H](O)c3ccc(c(Cl)c3)Oc3cc2cc(c3O[C@@H]2O[C@H](CO)[C@@H](O)[C@H](O)[C@H]2O[C@H]2C[C@](C)(N)[C@H](O)[C@H](C)O2)Oc2ccc(cc2Cl)[C@H]1O)N(C)Cc1ccc(-c2ccc(CCN)cc2)cc1 | 1 (≈ 0.603 µM) | 8 (≈ 4.82 µM) | 64 (≈ 38.6 µM) | 64 (≈ 38.6 µM) | 64 (≈ 38.6 µM) | > 128 | > 128 | > 128 | – |
| CC(C)C[C@H](C(=O)N[C@H]1C(=O)N[C@@H](CC(N)=O)C(=O)N[C@H]2C(=O)N[C@H]3C(=O)N[C@H](C(=O)N[C@H](C(=O)O)c4cc(O)cc(O)c4-c4cc3ccc4O)[C@H](O)c3ccc(c(Cl)c3)Oc3cc2cc(c3O[C@@H]2O[C@H](CO)[C@@H](O)[C@H](O)[C@H]2O[C@H]2C[C@](C)(N)[C@H](O)[C@H](C)O2)Oc2ccc(cc2Cl)[C@H]1O)N(C)Cc1ccc(-c2ccc(CCNC(=N)N)cc2)cc1 | 2 (≈ 1.18 µM) | 4 (≈ 2.35 µM) | 32 (≈ 18.8 µM) | 32 (≈ 18.8 µM) | 32 (≈ 18.8 µM) | > 128 | > 128 | > 128 | – |
| CN[C@H](CC(C)C)C(=O)N[C@H]1C(=O)N[C@@H](CC(N)=O)C(=O)N[C@H]2C(=O)N[C@H]3C(=O)N[C@H](C(=O)N[C@H](C(=O)NCc4ccc(-c5ccc(CN)cc5)cc4)c4cc(O)cc(O)c4-c4cc3ccc4O)[C@H](O)c3ccc(c(Cl)c3)Oc3cc2cc(c3O[C@@H]2O[C@H](CO)[C@@H](O)[C@H](O)[C@H]2O[C@H]2C[C@](C)(N)[C@H](O)[C@H](C)O2)Oc2ccc(cc2Cl)[C@H]1O | ≤ 0.063 | 1 (≈ 0.608 µM) | 8 (≈ 4.87 µM) | – | 8 (≈ 4.87 µM) | 16 (≈ 9.74 µM) | 32 (≈ 19.5 µM) | > 128 | – |
| CC(C)C[C@@H](N)C(=O)N[C@H]1C(=O)N[C@@H](CC(N)=O)C(=O)N[C@H]2C(=O)N[C@H]3C(=O)N[C@H](C(=O)N[C@H](C(=O)NCc4ccc(CN)cc4)c4cc(O)cc(O)c4-c4cc3ccc4O)[C@H](O)c3ccc(c(Cl)c3)Oc3cc2cc(c3O[C@@H]2O[C@H](CO)[C@@H](O)[C@H](O)[C@H]2O[C@H]2C[C@](C)(N)[C@H](O)[C@H](C)O2)Oc2ccc(cc2Cl)[C@H]1O | 1 (≈ 0.644 µM) | 1 (≈ 0.644 µM) | 128 (≈ 82.4 µM) | 64 (≈ 41.2 µM) | 64 (≈ 41.2 µM) | 16 (≈ 10.3 µM) | 64 (≈ 41.2 µM) | – | – |
| CN[C@H](CC(C)C)C(=O)N[C@H]1C(=O)N[C@@H](CC(N)=O)C(=O)N[C@H]2C(=O)N[C@H]3C(=O)N[C@H](C(=O)N[C@H](C(=O)NCc4ccc(-c5ccc(CCN)cc5)cc4)c4cc(O)cc(O)c4-c4cc3ccc4O)[C@H](O)c3ccc(c(Cl)c3)Oc3cc2cc(c3O[C@@H]2O[C@H](CO)[C@@H](O)[C@H](O)[C@H]2O[C@H]2C[C@](C)(N)[C@H](O)[C@H](C)O2)Oc2ccc(cc2Cl)[C@H]1O | 1 (≈ 0.603 µM) | 1 (≈ 0.603 µM) | 8 (≈ 4.83 µM) | 8 (≈ 4.83 µM) | 4 (≈ 2.41 µM) | 16 (≈ 9.65 µM) | 32 (≈ 19.3 µM) | > 128 | – |
| CC(C)C[C@@H](N)C(=O)N[C@H]1C(=O)N[C@@H](CC(N)=O)C(=O)N[C@H]2C(=O)N[C@H]3C(=O)N[C@H](C(=O)N[C@H](C(=O)NCc4ccc(CNC(=N)N)cc4)c4cc(O)cc(O)c4-c4cc3ccc4O)[C@H](O)c3ccc(c(Cl)c3)Oc3cc2cc(c3O[C@@H]2O[C@H](CO)[C@@H](O)[C@H](O)[C@H]2O[C@H]2C[C@](C)(N)[C@H](O)[C@H](C)O2)Oc2ccc(cc2Cl)[C@H]1O | 0.25 (≈ 0.157 µM) | 1 (≈ 0.627 µM) | 16 (≈ 10 µM) | 16 (≈ 10 µM) | 8 (≈ 5.01 µM) | 8 (≈ 5.01 µM) | 32 (≈ 20.1 µM) | – | – |
| CC(C)C[C@H](C(=O)N[C@H]1C(=O)N[C@@H](CC(N)=O)C(=O)N[C@H]2C(=O)N[C@H]3C(=O)N[C@H](C(=O)N[C@H](C(=O)O)c4cc(O)cc(O)c4-c4cc3ccc4O)[C@H](O)c3ccc(c(Cl)c3)Oc3cc2cc(c3O[C@@H]2O[C@H](CO)[C@@H](O)[C@H](O)[C@H]2O[C@H]2C[C@](C)(N)[C@H](O)[C@H](C)O2)Oc2ccc(cc2Cl)[C@H]1O)N(C)Cc1ccc(-c2ccc(CNC(=N)N)cc2)cc1 | 1 (≈ 0.593 µM) | 4 (≈ 2.37 µM) | 32 (≈ 19 µM) | 32 (≈ 19 µM) | 32 (≈ 19 µM) | > 128 | > 128 | > 128 | – |
| CC(=O)NC[C@H]1CN(c2ccc(N3CCOCC3)c(F)c2)C(=O)O1 [LINEZOLID] | – | – | 1 (≈ 2.96 µM) | 2 (≈ 5.93 µM) | 2 (≈ 5.93 µM) | 128 (≈ 379 µM) | 128 (≈ 379 µM) | > 128 | > 128 |
| CN[C@H](CC(C)C)C(=O)N[C@H]1C(=O)N[C@@H](CC(N)=O)C(=O)N[C@H]2C(=O)N[C@H]3C(=O)N[C@H](C(=O)N[C@H](C(=O)NCCc4ccc(-c5ccc(CN)cc5)cc4)c4cc(O)cc(O)c4-c4cc3ccc4O)[C@H](O)c3ccc(c(Cl)c3)Oc3cc2cc(c3O[C@@H]2O[C@H](CO)[C@@H](O)[C@H](O)[C@H]2O[C@H]2C[C@](C)(N)[C@H](O)[C@H](C)O2)Oc2ccc(cc2Cl)[C@H]1O | 0.25 (≈ 0.151 µM) | 1 (≈ 0.603 µM) | 8 (≈ 4.83 µM) | – | 8 (≈ 4.83 µM) | 16 (≈ 9.65 µM) | 32 (≈ 19.3 µM) | > 128 | – |
| CN[C@H](CC(C)C)C(=O)N[C@H]1C(=O)N[C@@H](CC(N)=O)C(=O)N[C@H]2C(=O)N[C@H]3C(=O)N[C@H](C(=O)N[C@H](C(=O)O)c4cc(O)cc(O)c4-c4cc3ccc4O)[C@H](O)c3ccc(c(Cl)c3)Oc3cc2cc(c3O[C@@H]2O[C@H](CO)[C@@H](O)[C@H](O)[C@H]2O[C@H]2C[C@](C)(NCc3ccc(-c4ccc(CNC(=N)N)cc4)cc3)[C@H](O)[C@H](C)O2)Oc2ccc(cc2Cl)[C@H]1O | 0.125 (≈ 0.0741 µM) | 2 (≈ 1.19 µM) | 4 (≈ 2.37 µM) | – | 4 (≈ 2.37 µM) | 64 (≈ 37.9 µM) | 64 (≈ 37.9 µM) | > 128 | – |
| CN[C@H](CC(C)C)C(=O)N[C@H]1C(=O)N[C@@H](CC(N)=O)C(=O)N[C@H]2C(=O)N[C@H]3C(=O)N[C@H](C(=O)N[C@H](C(=O)O)c4cc(O)cc(O)c4-c4cc3ccc4O)[C@H](O)c3ccc(c(Cl)c3)Oc3cc2cc(c3O[C@@H]2O[C@H](CO)[C@@H](O)[C@H](O)[C@H]2O[C@H]2C[C@](C)(NCc3ccc(-c4ccc(CCN)cc4)cc3)[C@H](O)[C@H](C)O2)Oc2ccc(cc2Cl)[C@H]1O | 0.25 (≈ 0.151 µM) | 2 (≈ 1.21 µM) | 16 (≈ 9.65 µM) | – | 8 (≈ 4.82 µM) | 64 (≈ 38.6 µM) | 64 (≈ 38.6 µM) | > 128 | – |
